# Experimental data: patent publication US9468692B2, “Labeled molecular imaging agents and methods of use” (GENERAL ELECTRIC COMPANY, priority 2014, dated 2016)
# Target: T1, cystine/glutamate transporter (Homo sapiens, UniProt Q9UPY5)
# T1 construct: endogenous in cells; host or cells: SKOV3 cells treated with 100 uM DEM (the paragraph also says 'DEM treated EL4 cells')
# T1 sequence (Q9UPY5 1-501): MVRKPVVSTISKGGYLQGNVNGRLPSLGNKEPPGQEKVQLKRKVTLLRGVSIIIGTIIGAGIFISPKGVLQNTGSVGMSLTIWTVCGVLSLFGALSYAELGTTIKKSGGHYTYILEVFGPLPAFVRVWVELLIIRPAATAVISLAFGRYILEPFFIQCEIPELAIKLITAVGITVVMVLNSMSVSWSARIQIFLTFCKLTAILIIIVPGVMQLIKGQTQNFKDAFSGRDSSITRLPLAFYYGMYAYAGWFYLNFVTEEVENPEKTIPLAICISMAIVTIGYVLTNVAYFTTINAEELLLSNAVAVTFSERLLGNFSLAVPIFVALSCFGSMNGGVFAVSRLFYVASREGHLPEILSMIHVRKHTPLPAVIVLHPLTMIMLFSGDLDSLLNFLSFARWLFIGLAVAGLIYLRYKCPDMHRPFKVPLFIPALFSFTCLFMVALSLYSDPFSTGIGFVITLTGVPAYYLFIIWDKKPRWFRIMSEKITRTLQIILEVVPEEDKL
# T1 sequence (P08195 2-529 partner): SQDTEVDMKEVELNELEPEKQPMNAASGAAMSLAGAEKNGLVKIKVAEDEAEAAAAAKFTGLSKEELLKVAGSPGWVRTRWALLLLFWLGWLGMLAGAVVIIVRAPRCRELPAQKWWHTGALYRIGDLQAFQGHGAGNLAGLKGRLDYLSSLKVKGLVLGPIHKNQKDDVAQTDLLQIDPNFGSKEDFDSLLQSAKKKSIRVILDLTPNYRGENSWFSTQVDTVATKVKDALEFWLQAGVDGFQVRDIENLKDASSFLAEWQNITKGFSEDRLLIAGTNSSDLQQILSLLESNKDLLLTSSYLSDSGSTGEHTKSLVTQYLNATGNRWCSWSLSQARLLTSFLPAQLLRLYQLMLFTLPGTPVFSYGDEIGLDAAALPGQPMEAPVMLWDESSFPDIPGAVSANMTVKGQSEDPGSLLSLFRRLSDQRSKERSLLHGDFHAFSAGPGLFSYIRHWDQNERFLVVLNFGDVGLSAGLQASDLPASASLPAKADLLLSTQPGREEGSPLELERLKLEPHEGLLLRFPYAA
# Experiment: Inhibition of 3H-L-Glu uptake in DEM treated cells
# Assay type: cell-based
# Conditions: SK-OV-3, 0.5 h; 1 mM agent; SKOV3 cells treated with 100 μM DEM overnight; 30 minutes uptake at room temperature; triplicate; lower = inhibition of transporter; read-out: % of control 3H-Glu uptake
# Method: Also provided are measurements of inhibition response of ^3H-L-GLU (control) uptake in DEM treated EL4 cells. As such 96 well plate were seeded with 100,000 SKOV3 cells/well in complete growth media (McCoy's+10% Fetal Bovine Serum(FBS)) and incubated overnight at 37° C. The media was changed to 100 μM DEM and again incubated overnight at 37° C. Wash 1× with Hank's Balanced Salt Solution (HBSS) Room Temperature and assayed […] of each agent (Table 2) in triplicate by incubating for 30 minutes (uptake) at room temperature. It was then washed twice with HBSS and 200 μl MicroScint20 added for counting. The protocol used 200 μCi ^3H-Glu per well. The mix and agent and ^3H-Glu provided a final concentration of 200 μCi and 1 mM agent. […] As such lower response is indicative of inhibition of the transporter. As such numbers below approximately 30% is equivalent to 70% inhibition and are considered good candidates for pharmaceutical agents.
row,Structure (SMILES),remaining activity at 1000 µM [%]
1,CCOc1cccc(C(=O)N(CCC[C@H](N)C(=O)O)CC(=O)O)c1 [Structure h],39.8
2,N[C@@H](CCCN(CC(=O)O)C(=O)Cc1ccccc1)C(=O)O [Structure j],43.3
3,CCc1ccc(C(=O)N(CCC[C@H](N)C(=O)O)CC(=O)O)cc1 [Structure g],11.2
4,N[C@@H](CCCN(CCC(=O)O)C(=O)c1ccccc1)C(=O)O [Structure d],36
5,CC(=O)N(CCC[C@H](N)C(=O)O)CC(=O)O [Structure b],95.7
6,N[C@@H](CCCN(CC(=O)O)C(=O)c1cccc2ccccc12)C(=O)O [Structure p],12.4
7,CCOc1ccc(C(=O)N(CCC[C@H](N)C(=O)O)CCC(=O)O)cc1 [Structure k],11.6
8,N[C@@H](CCCN(CCC(=O)O)C(=O)c1ccc(O)cc1)C(=O)O [Structure t],45.4
9,N[C@@H](CCCN(CC(=O)O)C(=O)c1ccc(O)cc1)C(=O)O [Structure s],22.4
10,CCC(C(=O)O)N(CCC[C@H](N)C(=O)O)C(=O)c1ccccc1 (stereo partly shown) [Structure w],26.1
11,CCCC(=O)N(CCCC[C@H](N)C(=O)O)CC(=O)O [Structure e],102
12,CCOc1ccc(C(=O)N(CCC[C@H](N)C(=O)O)CC(=O)O)cc1 [Structure i],17.3
13,N[C@@H](CCCN(CCC(=O)O)C(=O)Cc1ccccc1)C(=O)O [Structure l],54.2
14,N[C@@H](CCCN(CC(=O)O)C(=O)CCc1ccccc1)C(=O)O [Structure n],12.3
15,N[C@@H](CCCN(CC(=O)O)C(=O)c1ccc(OCCF)cc1)C(=O)O [Structure x],13.3
16,N[C@@H](CCCN(CC(=O)O)C(=O)OCc1ccccc1)C(=O)O [Structure r],16.4
17,N[C@@H](CCCN(CCC(=O)O)C(=O)c1ccc(OCc2ccccc2)cc1)C(=O)O [Structure u],12.7
18,Cc1ccc(S(=O)(=O)N(CCC[C@H](N)C(=O)O)CC(=O)O)cc1 [Structure q],13.4
19,CC(=O)N(CCCC[C@H](N)C(=O)O)CCC(=O)O [Structure c],102
20,CC(=O)N(CCC[C@H](N)C(=O)O)CCC(=O)O [Structure a],118
21,N[C@@H](CCCN(CCC(=O)O)C(=O)c1ccc(OCCF)cc1)C(=O)O [Structure y],10.6
22,N[C@@H](CCCN(CC(=O)O)C(=O)c1ccccc1)C(=O)O [Structure f],37.2
